# How the values were obtained:
# [1] = Clinical study: plasma pharmacokinetics, film vs Singulair tablet; format: in vivo; conditions: human, oral, 10 mg, clinical trials of the film, read-out: Tmax of plasma levels
# Procedure: We have performed a clinical study of our product to determine the pharmacokinetics of the API loaded into this pharmaceutical platform. […] Singulair® is the marketed formulation of MTL, commonly prescribed for asthma sufferers. It consists of a 10 mg loaded API tablet. The Cmax and Tmax values are listed below, see Table 2. […] These higher values for our films means that we could load less API into the film product and achieve the same Cmax/AUC as the Singulair® reference product. The major difference between the disclosed Intelgenx prototype and Singulair® is the physical state of the MTL once it reaches the stomach. In the Singulair® product, the MTL reaches the stomach in a compressed solid state and thus must solubilize in the stomach under unfavorable conditions. […] The MTL is then transferred to the small intestine via the pylori. Since the MTL is already present as a suspended precipitate, the MTL may more easily reach the small intestine through the leaking pylori. It is well known that the pylori is not leak proof and allows some liquid to flow through even in its closed position. […] In particular, the chewable dosage form is about 1.17 times more bioavailable than the tablet when administered in a fasting subject (compared using available bioavailability date shown in Table 2). […]
# plasma proteins = conditions: cited from earlier work
# [2] = rats dosed with radiolabeled MTL; cited from earlier work
# [3] = MTL in tablet form; cited from earlier work
structure (smiles),measurement,setting,value
"CC(C)(O)c1ccccc1CC[C@@H](SCC1(CC(=O)O)CC1)c1cccc(/C=C/c2ccc3ccc(Cl)cc3n2)c1 [MTL, Montelukast]",Tmax,[1],2 to 4 h
same,Bound to plasma proteins,plasma proteins,more than 99%
same,Distribution across the blood-brain barrier,[2],minimal distribution
same,Time to maximum concentrations in blood stream,[3],2 to 4 h

# — US20260097002A1, “METHOD OF TREATMENT AND DEVICE FOR THE IMPROVED BIOAVAILABILITY OF LEUKOTRIENE RECEPTOR ANTAGONISTS” (INTELGENX CORP., priority 2022, published 2026)
